# Where a name gives a salt, the structure may show the parent alone.
# Molecular target: T1, human A3AR (Homo sapiens, UniProt P0DMS8)
# T1 construct: expressed in transfected cells
# T1 sequence (P0DMS8 1-318): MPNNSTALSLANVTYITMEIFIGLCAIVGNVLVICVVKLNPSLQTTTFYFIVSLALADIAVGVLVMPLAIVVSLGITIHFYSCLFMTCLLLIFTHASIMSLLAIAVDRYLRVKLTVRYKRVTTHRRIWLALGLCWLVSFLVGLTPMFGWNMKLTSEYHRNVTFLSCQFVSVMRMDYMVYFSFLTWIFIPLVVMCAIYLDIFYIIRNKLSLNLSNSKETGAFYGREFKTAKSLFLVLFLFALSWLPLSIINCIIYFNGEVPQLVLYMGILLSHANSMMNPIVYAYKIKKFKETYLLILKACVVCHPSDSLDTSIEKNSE
# Test: LOPAC library primary screen: single concentration (10 μM) inhibition of 25 nM CA200645 binding, PHERAstar FS
# Settings: not given
row,Compound,% 25 nM CA200645 binding [%]
1,C[C@]12CC[C@@H]3c4ccc(O)cc4C[C@@H](CCCCCCCCC[S+]([O-])CCCC(F)(F)C(F)(F)F)[C@H]3[C@@H]1CC[C@@H]2O (stereo partly shown) [Fulvestrant],100.4 ± 12.1
2,O=C(c1ccc(F)cc1)C1CCN(CCn2c(=O)[nH]c3ccccc3c2=O)CC1 [Ketanserin tartrate],100.1 ± 15.2
3,C=CCN1CC[C@]23c4c5ccc(O)c4O[C@H]2C(=O)CC[C@@]3(O)[C@H]1C5 [Naloxone hydrochloride],114.3 ± 14.2
4,CCCN(CC1CC1)c1nc(C)nc(Nc2c(Cl)cc(Cl)cc2Cl)c1Cl [NBI 27914],89.7 ± 7.0
5,COc1ccc2c(c1)c(CC(=O)O)c(C)n2Cc1ccc(Cl)cc1,97.1 ± 10.6
6,COc1ccc(-c2cc(=O)c3c(O)c(OC)c(OC)cc3o2)cc1O [Eupatorin],47.2 ± 12.7
7,N#CC(=C(/N)Sc1ccccc1N)/C(C#N)=C(/N)Sc1ccccc1N [U0126],97.2 ± 19.0
8,CCCCCCN(CCCCCC)C(=O)Cc1c(-c2ccc(F)cc2)[nH]c2ccccc12,88.5 ± 10.2
9,CN1CC[C@@]2(C)c3cc(O)ccc3N(C)[C@@H]12.O=C(O)/C=C/C(=O)O [(-)-Eseroline fumarate],105.8 ± 9.3
10,N=C(N)c1ccccc1 [Benzamidine hydrochloride],90.8 ± 8.3
11,CCCCCCCCc1ccc(-c2ccc(C(=O)O)cc2)cc1 [AC-55649],83.6 ± 13.2
12,O=C(O)/C=C\C(=O)O.c1cnc(N2CCN(Cc3ccc4c(c3)OCO4)CC2)nc1 [Piribedil maleate],97.8 ± 1.7
13,CCCNC(C)C(=O)Nc1ccccc1C (stereo not shown) [Prilocaine hydrochloride],106.9 ± 9.7
14,Br.CCCN(CCC)[C@@H]1CCc2ccc(O)cc2C1 [R-(+)-7-Hydroxy-DPAT hydrobromide],110.9 ± 7.0
15,Cc1oncc1C(=O)Nc1ccc(C(F)(F)F)cc1 [Leflunomide],100.1 ± 5.3
16,O=C(O)/C=C\C(=O)O.O=C(O)/C=C\C(=O)O.c1cc(CN2CCCCC2)cc(OCCCNc2nc3ccccc3s2)c1 [SKF 95282 dimaleate],120.1 ± 40.0
17,CCN(CC)CCNC(=O)c1ccc(N)cc1 [Procainamide hydrochloride],89.6 ± 33.7
18,CC[C@]1(O)C[C@@H]2CN(CCc3c([nH]c4ccccc34)[C@@](C(=O)OC)(c3cc4c(cc3OC)N(C)[C@H]3[C@@](O)(C(=O)OC)[C@H](OC(C)=O)[C@]5(CC)C=CCN6CC[C@]43[C@@H]65)C2)C1.O=S(=O)(O)O [Vinblastine sulfate salt],98.2 ± 16.0
19,C[C@@H]1O[C@@H](O[C@H]2C[C@@H](O)[C@]3(CO)[C@H]4[C@H](O)C[C@]5(C)[C@@H](C6=CC(=O)OC6)CC[C@]5(O)[C@@H]4CC[C@]3(O)C2)[C@H](O)[C@H](O)[C@H]1O [Ouabain],102.0 ± 3.5
20,CCCCCCC(C(C)O)n1cnc2c(N)ncnc21.Cl (stereo not shown),80.7 ± 17.0
21,CC(=O)OC[C@H]1O[C@@H]([S-])[C@H](OC(C)=O)[C@@H](OC(C)=O)[C@@H]1OC(C)=O.CCP(CC)CC.[Au+] [Auranofin],82.1 ± 31.0

row,Compound,% 25 nM CA200645 binding [%]
1,"Cc1cccc(C(=O)NCN2CCN(c3ccccc3C#N)CC2)c1.O=C(O)/C=C\C(=O)O [PD 168,077 maleate]",92.4 ± 5.3
2,O=C(/C=C/c1ccc(O)cc1)c1ccc(O)cc1O [Isoliquiritigenin],88.0 ± 9.1
3,N=C(N)NCCC[C@H](N)C(=O)O [L-Arginine],97.1 ± 5.5
4,NS(=O)(=O)c1cccc2c1c([N+](=O)[O-])cc1nc([O-])c([O-])nc12.[Na+].[Na+] [NBQX disodium],94.5 ± 3.8
5,C1COC(NC(C2CC2)C2CC2)=N1 [Rilmenidine hemifumarate],100.9 ± 6.4
6,CSc1ccc2c(c1)N(CCC1CCCCN1C)c1ccccc1S2 (stereo not shown) [Thioridazine hydrochloride],102.5 ± 9.6
7,COc1ccc(CNC(=O)/C=C/c2ccc3[nH]cc(CCN(C)C)c3c2)cc1 [GR 46611],100.9 ± 13.0
8,NCCCS(=O)(=O)O.[Na] [3-Amino-1-propanesulfonic acid sodium],96.5 ± 4.6
9,CC(=O)OCC(=O)[C@@]1(O)CC[C@H]2[C@@H]3CCC4=CC(=O)CC[C@]4(C)[C@H]3C(=O)C[C@@]21C [Cortisone 21-acetate],92.1 ± 5.7
10,CC(C)(C)NC[C@H](O)COc1nsnc1N1CCOCC1.O=C(O)/C=C\C(=O)O [S(-)-Timolol maleate],103.3 ± 4.5
11,OCCN1CCN(CCCN2c3ccccc3Sc3ccc(C(F)(F)F)cc32)CC1 [Fluphenazine dihydrochloride],98.1 ± 12.0
12,"CCCn1c(=O)c(C)cn2nc(N)nc12 [ICI 63,137]",93.4 ± 5.4
13,FC(F)(F)c1ccccc1-n1ccnc1 [1-[2-(Trifluoromethyl)phenyl]imidazole],101.2 ± 9.4
14,COCCOC(=O)C1=C(C)NC(C)=C(C(=O)OC/C=C/c2ccccc2)C1c1cccc([N+](=O)[O-])c1 (stereo not shown) [Cilnidipine],67.0 ± 19.0
15,CC[C@@]1(O)C(=O)OCc2c1cc1n(c2=O)Cc2cc3ccccc3nc2-1 [(S)-(+)-Camptothecin],99.7 ± 12.1
16,CC[N+](CC)(CC)CCOc1ccc(/C=C/c2ccccc2)cc1 [MG 624],106.9 ± 11.5
17,CCCC(CCC)C(=O)O [Valproic acid sodium],99.8 ± 9.6
18,"O=C(O)Cc1ccc(O)c(O)c1 [3,4-Dihydroxyphenylacetic acid]",97.0 ± 9.9
19,CCCN(CCC)CCc1ccc(O)c(O)c1 [Dipropyldopamine hydrobromide],101.8 ± 8.0
20,CCN1CCC[C@H]1CNC(=O)c1c(O)c(Cl)cc(Cl)c1OC.O=C(O)C(O)C(O)C(=O)O (racemic) [S(+)-Raclopride L-tartrate],98.6 ± 4.9
21,Nc1cc(N2CCCCC2)nc(N)[n+]1[O-] [Minoxidil],96.7 ± 6.2

row,Compound,% 25 nM CA200645 binding [%]
1,Nc1ccc(CCNc2ncnc3c2ncn3[C@@H]2O[C@H](CO)[C@@H](O)[C@H]2O)cc1 [N6-2-(4-Aminophenyl)ethyladenosine],41.0 ± 7.1
2,Oc1cc(-c2ccccc2)nc2nc(Cl)ccc12,77.8 ± 8.8
3,OCCN1CCN(CC/C=C2/c3ccccc3Sc3ccc(C(F)(F)F)cc32)CC1 [cis-(Z)-Flupenthixol dihydrochloride],96.5 ± 4.1
4,COc1ccc2c(c1OC)C(=O)O[C@@H]2[C@H]1c2c(cc3c(c2OC)OCO3)CCN1C.Cl [Noscapine hydrchloride],114.6 ± 20.4
5,CCN1CCCC1CNC(=O)c1cc(S(N)(=O)=O)ccc1OC (racemic) [(±)-Sulpiride],102.1 ± 6.1
6,CNc1ncnc2c1ncn2[C@H]1C[C@H](OP(=O)(O)O)[C@@H](COP(=O)(O)O)O1 [MRS 2179],108.4 ± 2.3
7,CN(CCCOc1ccc(Cc2ccccc2)cc1)CCC(=O)O.Cl [SC-57461A],83.2 ± 13.1
8,CC(C)NCC(O)COc1cccc2[nH]ccc12 (stereo not shown) [Pindolol],84.7 ± 11.8
9,Cl.NCCCCC(=O)O [5-Aminovaleric acid hydrochloride],97.9 ± 5.1
10,Nc1ccncc1 [4-Aminopyridine],93.6 ± 7.2
11,CC1=C(/C=C/C(C)=C/C=C/C(C)=C/C=C/C=C(C)/C=C/C=C(C)/C=C/C2=C(C)C(=O)[C@@H](O)CC2(C)C)C(C)(C)C[C@H](O)C1=O [Astaxanthin],96.8 ± 4.6
12,CCN(CC)C(=O)c1ccc(O)c(OC)c1 [Vanillic acid diethylamide],101.7 ± 2.4
13,Cl.N[C@@H](CCC(=O)O)C(=O)O [L-Glutamic acid hydrochloride],113.0 ± 19.3
14,Fc1cccc(/C=N/N=C/c2cccc(F)c2)c1 [DFB],94.8 ± 1.4
15,CCCCCCCCCCCCCCCCCCN(CCCCCCCCCCCCCCCCCC)CCCN(CCO)CCO [Avridine],100.2 ± 21.9
16,CCCn1c(=O)[nH]c(=O)c2nc[nH]c21 [3-n-Propylxanthine],101.0 ± 10.1
17,CC(C)Oc1cccnc1N(C)C1CCN(Cc2ccccc2)CC1.O=C(O)/C=C\C(=O)O [U-101958 maleate],102.1 ± 9.0
18,C=C(C)[C@H]1CC=C(C(=O)O)CC1 [(-)-Perillic acid],115.8 ± 16.6
19,"CC(N)C(O)c1ccc(O)c(O)c1 (single isomer, unassigned; (-)) [(-)-alpha-Methylnorepinephrine]",100.4 ± 6.1
20,O=NN(CCCl)C(=O)NCCCl [Carmustine],102.2 ± 1.0
21,CC(=O)N1CCN(c2ccc(OCC3COC(Cn4ccnc4)(c4ccc(Cl)cc4Cl)O3)cc2)CC1 (stereo not shown) [Ketoconazole],98.9 ± 9.0

# Same assay, conditions: % of control wells (1% DMSO and 25 nM CA200645); compounds at 10 µM; whole live cells expressing the A3AR; mean ± SD, three experiments in duplicate
row,Compound,% 25 nM CA200645 binding [%]
1,CCn1ccnc1CC1COc2ccccc2O1 (stereo not shown) [Imiloxan hydrochloride],97.3 ± 10.2
2,O=C(O)CNC(=O)C(CS)Cc1ccccc1 (racemic) [DL-Thiorphan],100.0 ± 12.5

# Same assay, conditions: compounds tested at 10 µM; % of control wells (1% DMSO and 25 nM CA200645); whole live cells expressing the A3AR; mean ± SD, three experiments in duplicate
row,Compound,% 25 nM CA200645 binding [%]
1,CCC(=O)c1ccc2c(c1)N(CCCN(C)C)c1ccccc1S2 [Propionylpromazine hydrochloride],101.0 ± 0.8
2,NC(CCCP(=O)(O)O)C(=O)O (racemic) [(±)-2-Amino-5-phosphonopentanoic acid],90.8 ± 6.2
